In PMC11726677, “Eradication of Therapy-Resistant Cancer Stem Cells by Novel Telmisartan Derivatives” (Journal of Medicinal Chemistry, 2024):
Where “and” joins values, the source holds several entries; their conditions need not be identical. Equal entries are not always repeated. Marks after values point to notes of the source that are not given here. Blank lines part the entries; values can stand above or below the molecule they belong to.

Assays:
[1] = Caco2 permeability (bidirectional); format: in vitro ADME; conditions: human, Caco-2; Papp B–A/Papp A–B
Protocol: (§1) The medium was changed regularly and on day 20 the permeability study was performed. The monolayers were prepared by rinsing the apical and basolateral surfaces with Hanks Balanced Salt Solution (HBSS) twice at the desired pH and by incubating for 40 min to stabilize the physiological parameters. […] The compounds were diluted with buffer to a concentration of 10 μM (final DMSO concentration ≤1%) and added to the apical or basolateral sides of the cell monolayer. Compound permeability was assessed in duplicates and molecules of known permeability characteristics were used as controls (antipyrine, atenolol, talinolol, and estrone 3-sulfate). To calculate Papp, compound appearance was measured using LC–MS/MS. The efflux ratio was determined for bidirectional assays.

Caco2 cells = assay: Caco2 permeability (bidirectional); format: in vitro ADME; conditions: pH 7.4, 10 μM; for Caco2 permeability Papp B–A: basolateral to apical
Protocol: as §1

K562-R cells = assay: Chemosensitizing: metabolic activity of K562-R cells cotreated with imatinib (modified MTT assay); format: cell-based, human; conditions: for chemosensitizing effect, concentration-dependent analysis: 0.5–8 μM (transporter inhibitors 10 to 0.5 μM); for rate of imatinib-triggered cell death: at 10 μM; for metabolic activity of K562-R cells, combination with imatinib: compound 10 μM + imatinib 1 μM
STAT5 = assay: Jess Simple Western immunoassay of STAT5/pSTAT5 in IGROV-1 SP cells; format: cell-based, human; conditions: IGROV-1 SP, 10 μM, 72 h
Protocol: The impact of STAT5 activation on the mode of action was investigated in selected solid tumor cell lines as well.
Protein extracts were prepared as previously described.[44] Protein expression was determined using the capillary-based Jess Simple Western detection system (ProteinSimple, BioTechne) according to the manufacturer’s instructions at default settings. […] Horseradish peroxidase (HRP)-conjugated secondary antirabbit antibody, which was included in the Jess Detection Module kit, was used. Data analysis was conducted using Compass for Simple Western 4.0 software (ProteinSimple, BioTechne).

IGROV-1 SP cells = assay: Chemosensitizing to paclitaxel: metabolic activity of IGROV-1 SP cells (MTT); format: cell-based, human; conditions: compound 10 μM + PTX 10 nM, 72 h
Protocol: The chemosensitizing efficacy was investigated in the ovarian and prostate cancer cell lines using the above-described metabolic activity assay. Paclitaxel (PTX) served as a reference (CTR) in A2780 V SP and IGROV-1 SP cells and docetaxel (DTX) in PC3-DR and D145-DR cells.
COS-7 (2 × 10^3 cells per well), IGROV-1 SP (2.5 × 10^3 cells per well), A2780 V SP (1.5 × 10^3 cells per well), PC3-DR (4 × 10^3 cells per well), and DU145-DR (3 × 10^3 cells per well) cells were seeded in 96-well plates in triplicates and after 24 h, the compounds were added at the respective concentrations. K562-R and K562 cells (2 × 10^4 cells per well), were treated with the compounds 2 h after seeding. […] A modified MTT colorimetric assay (EZ4U kit, Biomedica) was used to determine the metabolic activity of the tested cells, according to the manufacturer’s instructions. Absorbance was measured and the optical density of the respective FCS-containing medium and of the substrate was subtracted to exclude nonspecific staining. Metabolic activity in the absence of the compounds (CTR, DMSO) was set to 100% as reference.

[2] = Turbidimetric aqueous solubility; format: physicochemical; conditions: phosphate buffered saline, estimated precipitation range, PBS pH 7.4, 37 °C
[3] = test system: human CML K562-R xenograft; assay: Efficacy in human CML K562-R xenograft model; format: in vivo, female NOD/SCID mice; parameters: % T/C (treatment/control) / % TGI (tumor growth inhibition): concentration or dose not given beside the values; conditions: for Tumor Volume, individual animal / Tumor Volume, group mean: PO QD x 30 days (imatinib 50 mg/kg, 7c 10 mg/kg); for % T/C (treatment/control): mean tumor volume treated vs control; for % TGI (tumor growth inhibition): vs vehicle control
Protocol: The animals were checked daily for humane end points. Body weight was measured and recorded daily after dosing.
The % T/C value, defined as the ratio of the mean tumor volume for the treated versus control group, was calculated as % T/C = (Tn/Cn) × 100%; whereas Tn: denotes mean tumor volume of the treated group on day n, and Cn: denotes mean tumor volume of the control group on day n. The optimal value is the minimal % T/C ratio, which reflects the maximal tumor growth inhibition achieved.
TGI (Tumor growth inhibition) was calculated by the following formula [drawing 1] [drawing 2]
Whereas: Tn: denotes the mean tumor volume of the treated group on day n; T1: denotes the mean tumor volume of the treated group on day 1; Cn: denotes the mean tumor volume of the vehicle control group on day n; and C1: denotes the mean tumor volume of the vehicle control group at day 1.

[4] = Body weight / tolerability in the K562-R xenograft study; conditions: for Body Weight, individual animal / Body Weight, group mean: PO QD x 30 days (imatinib 50 mg/kg, 7c 10 mg/kg); for Body Weight, individual animal: animals No. 1–7; for Body Weight, group mean: n = 7

efflux ratio at 10 µM [1]: 1.24
Caco2 permeability Papp A–B (Caco2 cells; apical to basolateral): 0.1 10^–6 cms^–1
Caco2 permeability Papp B–A (Caco2 cells): 0.2 10^–6 cms^–1
solubility at 2 h [2]: < 6.5 µM
Structure (SMILES): CCCc1nc2c(C)cc(-c3nc4ccccc4n3C)cc2n1Cc1ccc(-c2ccccc2C(=O)OC)cc1 [7b, Methyl 4′-((1,7′-dimethyl-2′-propyl-1H,3′H-[2,5′-bibenzo[d]imidazole]-3′-yl)methyl)-[1,1′-biphenyl]-2-carboxylate]
chemosensitizing effect, concentration-dependent analysis (K562-R cells; K562-R, + imatinib 1 μM, 72 h): strongly sensitized the cells to imatinib therapy
rate of imatinib-triggered cell death (K562-R cells; K562-R): > 85%
metabolic activity of K562-R cells, combination with imatinib (K562-R cells; 72 h): 8–24%
phosphorylation status of STAT5 (STAT5): practically did not suppress pSTAT5
viability / antimetabolic effect in combination with PTX (IGROV-1 SP cells): inactive

Structure (SMILES): CCCc1nc2c(C)cc(-c3nc4ccccc4n3C)cc2n1Cc1ccc(-c2ccccc2C(N)=O)cc1 [7c, 4′-((1,7′-Dimethyl-2′-propyl-1H,3′H-[2,5′-bibenzo[d]imidazole]-3′-yl)methyl)-[1,1′-biphenyl]-2-carboxamide]
Caco2 permeability Papp B–A (Caco2 cells): 30.8 10^–6 cms^–1
chemosensitizing effect, concentration-dependent analysis (K562-R cells; K562-R, + imatinib 1 μM, 72 h): strongly sensitized the cells to imatinib therapy
EC50 (K562-R cells; K562-R, + imatinib 1 μM, 72 h, read-out: SC50 (drug concentration eliciting 50% of the maximum sensitizing effect)): 1.85 µM
rate of imatinib-triggered cell death (K562-R cells; K562-R): > 85%
metabolic activity of K562-R cells, combination with imatinib (K562-R cells; 72 h): 8–24%
Tumor Volume, individual animal ([3]; Day 1, animals No. 1–7): 171 mm3 and 163 mm3 and 155 mm3 and 149 mm3 and 140 mm3 and 136 mm3 and 124 mm3
Tumor Volume, group mean ([3]; Day 1, n = 7): 148 mm3
Tumor Volume, individual animal ([3]; Day 5, animals No. 1–7): 197 mm3 and 204 mm3 and 162 mm3 and 148 mm3 and 149 mm3 and 187 mm3 and 130 mm3
Tumor Volume, group mean ([3]; Day 5, n = 7): 168 mm3
% T/C (treatment/control) ([3]; Day 5): 90%
% TGI (tumor growth inhibition) ([3]; Day 5): 46%
Tumor Volume, individual animal ([3]; Day 8, animals No. 1–7): 202 mm3 and 360 mm3 and 167 mm3 and 154 mm3 and 155 mm3 and 464 mm3 and 133 mm3
Tumor Volume, group mean ([3]; Day 8, n = 7): 234 mm3
% T/C (treatment/control) ([3]; Day 8): 96%
% TGI (tumor growth inhibition) ([3]; Day 8): 9%
Tumor Volume, individual animal ([3]; Day 12, animals No. 1–7): 213 mm3 and 711 mm3 and 201 mm3 and 158 mm3 and 164 mm3 and 949 mm3 and 143 mm3
Tumor Volume, group mean ([3]; Day 12, n = 7): 363 mm3
% T/C (treatment/control) ([3]; Day 12): 88%
% TGI (tumor growth inhibition) ([3]; Day 12): 18%
Tumor Volume, individual animal ([3]; Day 15, animals No. 1–7): 216 mm3 and 991 mm3 and 317 mm3 and 165 mm3 and 168 mm3 and 1349 mm3 and 143 mm3
Tumor Volume, group mean ([3]; Day 15, n = 7): 478 mm3
% T/C (treatment/control) ([3]; Day 15): 75%
% TGI (tumor growth inhibition) ([3]; Day 15): 32%
Tumor Volume, individual animal ([3]; Day 19, animals No. 1–7): 207 mm3 and 1716 mm3 and 521 mm3 and 192 mm3 and 174 mm3 and 1858 mm3 and 148 mm3
Tumor Volume, group mean ([3]; Day 19, n = 7): 688 mm3
% T/C (treatment/control) ([3]; Day 19): 84%
% TGI (tumor growth inhibition) ([3]; Day 19): 20%
Tumor Volume, individual animal ([3]; Day 22, animals No. 1–7): 181 mm3 and 2448 mm3 and 891 mm3 and 198 mm3 and 180 mm3 and 2149 mm3 and 149 mm3
Tumor Volume, group mean ([3]; Day 22, n = 7): 885 mm3
% T/C (treatment/control) ([3]; Day 22): 79%
% TGI (tumor growth inhibition) ([3]; Day 22): 24%
Tumor Volume, individual animal ([3]; Day 26, animals No. 1–7): 181 mm3 and 2912 mm3 and 1522 mm3 and 206 mm3 and 188 mm3 and 2607 mm3 and 156 mm3
Tumor Volume, group mean ([3]; Day 26, n = 7): 1110 mm3
% T/C (treatment/control) ([3]; Day 26): 69%
% TGI (tumor growth inhibition) ([3]; Day 26): 34%
Tumor Volume, individual animal ([3]; Day 29, animals No. 1–7): 184 mm3 and 3497 mm3 and 1803 mm3 and 214 mm3 and 196 mm3 and 2946 mm3 and 163 mm3
Tumor Volume, group mean ([3]; Day 29, n = 7): 1286 mm3
% T/C (treatment/control) ([3]; Day 29): 65%
% TGI (tumor growth inhibition) ([3]; Day 29): 38%
Tumor Volume, individual animal ([3]; Day 33, animals No. 1–7): 200 mm3 and 4707 mm3 and 2923 mm3 and 214 mm3 and 196 mm3 and 3520 mm3 and 172 mm3
Tumor Volume, group mean ([3]; Day 33, n = 7): 1705* mm3
% T/C (treatment/control) ([3]; Day 33): 63%
% TGI (tumor growth inhibition) ([3]; Day 33): 39%
Tumor Weight, individual animal ([3]; harvested on day 33, animals No. 1–7): 0.078 g and 3.807 g and 2.646 g and 0.268 g and 0.057 g and 4.319 g and 0.060 g
Tumor Weight, group mean ([3]; harvested on day 33, n = 7): 1.600 g
tolerability ([4]; 7c 10 mg/kg, imatinib 50 mg/kg, PO QD × 30 days): well tolerated
Body Weight, individual animal ([4]; Day 1): 23 g and 25 g and 26 g and 21 g
Body Weight, group mean ([4]; Day 1): 24.1 g
Body Weight, individual animal ([4]; Day 5): 23 g and 24 g and 25 g and 26 g and 21 g
Body Weight, individual animal ([4]; Day 8): 23 g and 22 g and 26 g and 28 g and 24 g
Body Weight, group mean ([4]; Day 8): 24.0 g
Body Weight, individual animal ([4]; Day 12): 23 g and 22 g and 25 g and 27 g and 24 g
Body Weight, individual animal ([4]; Day 15): 23 g and 22 g and 25 g and 27 g and 21 g
Body Weight, group mean ([4]; Day 15): 23.4 g
Body Weight, individual animal ([4]; Day 19): 23 g and 25 g and 22 g and 28 g
Body Weight, individual animal ([4]; Day 22): 24 g and 25 g and 23 g and 27 g and 22 g
Body Weight, group mean ([4]; Day 22): 24.1 g
Body Weight, individual animal ([4]; Day 26): 25 g and 26 g and 22 g and 27 g and 23 g
Body Weight, individual animal ([4]; Day 29): 23 g and 26 g and 21 g and 28 g and 24 g and 22 g
Body Weight, individual animal ([4]; Day 33): 24 g and 27 g and 22 g and 26 g and 28 g and 23 g
Body Weight, group mean ([4]; Day 33): 25.1 g
solubility at 2 h [2]: < 6.5 µM
